Source: patent US9526721B2, “Tetrahydroprotoberbine compounds and uses thereof in the treatment of neurological, psychiatric and neurodegenerative diseases” (priority 2012, dated 2016)
“Also recorded” adds a separate entry of the source.

Tests used:
D5 = target: T1, D5 (Homo sapiens, UniProt P21918); experiment: Receptor binding, dopamine D5; conditions: receptor expressed in CHO cells
T1 construct: host or cells: CHO cells
Description: All receptors tested were heterologously expressed CHO cells and IC50 values were determined by a non-linear, least squares regression analysis using MathIQ (ID Business Solution Ltd, UK).
All receptors were heterologously expressed CHO cells and IC50 values were determined by a non-linear, least squares regression analysis using MathIQ (ID Business Solution Ltd, UK).

5HT2C = target: T2, 5HT2C (Homo sapiens, UniProt P28335); experiment: Receptor binding, 5HT2C; conditions: receptor expressed in CHO cells
T2 construct: host or cells: CHO cells
T2 sequence (P28335 33-458): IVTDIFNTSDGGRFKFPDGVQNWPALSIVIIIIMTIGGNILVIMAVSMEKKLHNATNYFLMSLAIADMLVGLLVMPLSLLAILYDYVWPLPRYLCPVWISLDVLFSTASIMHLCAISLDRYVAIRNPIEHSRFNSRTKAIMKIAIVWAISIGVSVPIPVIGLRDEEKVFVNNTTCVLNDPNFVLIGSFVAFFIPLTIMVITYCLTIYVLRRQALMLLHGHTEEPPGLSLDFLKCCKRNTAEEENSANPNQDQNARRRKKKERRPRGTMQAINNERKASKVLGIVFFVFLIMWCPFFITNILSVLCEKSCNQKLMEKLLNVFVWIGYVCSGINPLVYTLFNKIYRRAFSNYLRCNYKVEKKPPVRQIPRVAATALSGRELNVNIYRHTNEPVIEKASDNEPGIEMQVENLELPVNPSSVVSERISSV
Description: (§1) All receptors tested were heterologously expressed CHO cells and IC50 values were determined by a non-linear, least squares regression analysis using MathIQ (ID Business Solution Ltd, UK). Ki was calculated using the equation of Cheng and Prusoff (1973, Biochem. Pharmacol 22:23099-3108) derived from the observed IC50 of the tested compound, the concentration of radioligand employed in the assay, and the historical values for the Kd of the ligand (obtained experimentally at MDS Pharma Services).
as §1, with “receptors” for “receptors tested”, “UK). K1” for “UK). Ki”, “calculated (Y.” for “calculated using the equation of”, “Cheng &” for “Cheng and”, “Prusoff 1973)” for “Prusoff (1973, Biochem. Pharmacol 22:23099-3108) derived”

5HT4 = target: T3, 5HT4 (Homo sapiens, UniProt Q13639); experiment: Receptor binding, 5HT4
T3 construct: host or cells: CHO cells
Description: as §1

5HT1A = target: T4, 5HT1A (Homo sapiens, UniProt P08908); experiment: Receptor binding, 5HT1A; conditions: receptor expressed in CHO cells
T4 construct: host or cells: CHO cells
T4 sequence (P08908 1-422): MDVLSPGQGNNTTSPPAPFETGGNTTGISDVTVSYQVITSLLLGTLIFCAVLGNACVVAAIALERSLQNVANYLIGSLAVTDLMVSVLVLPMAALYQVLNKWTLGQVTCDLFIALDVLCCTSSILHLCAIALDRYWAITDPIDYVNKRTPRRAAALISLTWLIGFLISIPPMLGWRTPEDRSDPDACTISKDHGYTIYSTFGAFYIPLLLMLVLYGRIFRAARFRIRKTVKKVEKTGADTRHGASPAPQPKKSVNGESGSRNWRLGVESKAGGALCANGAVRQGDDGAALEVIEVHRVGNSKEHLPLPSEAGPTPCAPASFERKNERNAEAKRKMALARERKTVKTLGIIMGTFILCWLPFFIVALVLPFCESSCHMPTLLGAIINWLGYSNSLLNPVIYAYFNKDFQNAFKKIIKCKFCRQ
Description: as §1
as §1, with “receptors” for “receptors tested”, “UK). K1” for “UK). Ki”, “calculated (Y.” for “calculated using the equation of”, “Cheng &” for “Cheng and”, “Prusoff 1973)” for “Prusoff (1973, Biochem. Pharmacol 22:23099-3108) derived”

rats [1] = experiment: Catalepsy (bar test); type: in vivo, rat; conditions: SC; for catalepsy (immobilized contact time): across doses tested
Description: Testing occurred in a plexiglas box (28 cm×45 cm×20 cm) containing a horizontal steel bar located 8 cm above floor level. […] After injection animals were returned to the test box and catalepsy testing occurred at 1, 15, 30, and 45 minutes after injection. Testing at each time point lasted 2 min after the forepaws of each rat was placed on the bar. Behavior was recorded with a video camera (Cohu, Poway, Calif.) and scored off-line. The cumulative time spent immobilized with both forelimbs on the horizontal bar was scored for each 2 min test epoch. Videos selected at random were scored independently by a second observer and a high inter-rater reliability was observed (R^2=0.93, F=393.4, p<0.05).
Catalepsy testing was conducted as described in Example 12.

5HT3 = target: T5, 5HT3 (Homo sapiens, UniProt P46098); experiment: Receptor binding, 5HT3; conditions: CHO cells
T5 construct: host or cells: CHO cells
T5 sequence (P46098 24-478): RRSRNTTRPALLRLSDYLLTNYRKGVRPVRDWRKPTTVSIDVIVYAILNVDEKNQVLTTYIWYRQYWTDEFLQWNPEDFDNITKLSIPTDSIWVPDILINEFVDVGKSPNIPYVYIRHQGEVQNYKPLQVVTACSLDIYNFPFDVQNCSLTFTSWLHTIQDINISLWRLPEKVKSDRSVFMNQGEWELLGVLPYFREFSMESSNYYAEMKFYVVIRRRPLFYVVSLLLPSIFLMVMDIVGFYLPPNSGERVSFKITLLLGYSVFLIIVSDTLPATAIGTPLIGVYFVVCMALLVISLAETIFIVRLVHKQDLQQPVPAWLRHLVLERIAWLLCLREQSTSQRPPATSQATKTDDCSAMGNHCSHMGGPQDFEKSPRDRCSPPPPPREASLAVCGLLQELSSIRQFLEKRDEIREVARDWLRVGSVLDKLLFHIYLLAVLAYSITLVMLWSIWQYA
Description: as §1

D1 = D1 (Homo sapiens, UniProt P21728); experiment: Receptor binding, dopamine D1; design: host or cells: CHO cells; conditions: for Ki: receptor expressed in CHO cells, read-out: Ki, D1
Description: as §1
as §1, with “receptors” for “receptors tested”, “UK). K1” for “UK). Ki”, “calculated (Y.” for “calculated using the equation of”, “Cheng &” for “Cheng and”, “Prusoff 1973)” for “Prusoff (1973, Biochem. Pharmacol 22:23099-3108) derived”

rats [2] = experiment: Conditioned avoidance responding (CAR); conditions: SC, 100 CS-US pairings
Description: Conditioned avoidance responding (CAR) was performed in a two-way avoidance procedure with drug naive rats in four shuttle boxes (Med Associates, Vt., USA) each consisting of two compartments separated by an open door. Each compartment contained a wall-mounted speaker, house light and 5 photocells to detect the location of the animal. All experimental protocols and data acquisition were controlled by custom programs written in MED-PC.
Before training, each animal received two acclimation sessions lasting 30 min with only the house light illuminated. […] Pairings of the conditioned stimulus (CS) (white noise, ˜60 dB) and the unconditioned stimulus (US) (footshock, 0.75 mA) were presented at random intervals with a mean of 60 sec. The CS was presented for 10 sec. During this time, if the animal moved to the opposite side of the box, the white noise was silenced, no foot shock delivered, and an avoidance response was scored. Upon termination of the 10 sec tone, if the animal had not moved to the opposite side of the box, a foot-shock was administered for 2 sec. […] Failure to avoid or escape constituted a response failure and was scored accordingly. After reaching a criterion of 90% avoidances for a block of 20 trials, usually achieved with ˜100 CS-US pairings, each animal advanced to the drug-testing phase. Animals not meeting the criterion by 120 pairings were excluded from the study.
Pairings were presented just as during training and were scored in the same fashion. The test trial consisted of 100 CS-US pairings.

[3] = test system: midbrain dopamine (DA) neurons; experiment: Firing of midbrain dopamine neurons in slices (cell-attached recording); type: cell-based, Sprague Dawley rats; conditions: co-application with Quinpirole (500 nM)
Description: Horizontal midbrain slices (220 μm) were prepared from male Sprague Dawley rats (3-4 weeks old). Cell-attached voltage-clamp recordings were used to examine tonic firing rate of DA neurons at 31-32° C. using patch pipette and bathing solutions consisting of physiological saline. Putative DA neurons were identified by spontaneous pacemaker firing (1-3 Hz) with broad APs (≧2.0 ms). Identified cells not responsive to Quinpirole (500 nM), a D2 DA receptor agonist, were excluded from further recording. Cells were also filled with biocytin or Alexa for posthoc-identification using TH immunostaining.

D1, sequence (P21728 whole entry): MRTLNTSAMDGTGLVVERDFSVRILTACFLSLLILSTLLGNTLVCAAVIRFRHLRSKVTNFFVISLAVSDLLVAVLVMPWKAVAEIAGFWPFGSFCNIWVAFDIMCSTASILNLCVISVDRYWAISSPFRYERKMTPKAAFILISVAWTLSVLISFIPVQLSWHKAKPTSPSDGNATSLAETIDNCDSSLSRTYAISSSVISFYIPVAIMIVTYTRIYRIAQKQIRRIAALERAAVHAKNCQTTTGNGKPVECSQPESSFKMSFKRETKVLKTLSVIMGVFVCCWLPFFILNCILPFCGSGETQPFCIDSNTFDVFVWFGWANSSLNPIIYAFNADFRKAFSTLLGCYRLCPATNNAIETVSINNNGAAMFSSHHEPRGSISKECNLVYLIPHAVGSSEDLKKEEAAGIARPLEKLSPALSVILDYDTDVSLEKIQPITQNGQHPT
T3 sequence (Q13639 whole entry, species assumed): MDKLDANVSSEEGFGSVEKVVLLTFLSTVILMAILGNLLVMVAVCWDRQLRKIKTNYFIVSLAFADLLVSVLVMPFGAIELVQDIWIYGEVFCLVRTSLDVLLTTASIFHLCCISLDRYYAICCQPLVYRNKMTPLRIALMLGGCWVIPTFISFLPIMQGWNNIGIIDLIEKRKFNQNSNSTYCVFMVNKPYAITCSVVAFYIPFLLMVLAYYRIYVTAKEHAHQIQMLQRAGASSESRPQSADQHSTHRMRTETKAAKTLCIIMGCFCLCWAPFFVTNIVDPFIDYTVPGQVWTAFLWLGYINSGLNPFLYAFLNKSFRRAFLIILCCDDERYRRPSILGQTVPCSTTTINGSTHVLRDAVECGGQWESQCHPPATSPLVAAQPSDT
T1 sequence (P21918 whole entry): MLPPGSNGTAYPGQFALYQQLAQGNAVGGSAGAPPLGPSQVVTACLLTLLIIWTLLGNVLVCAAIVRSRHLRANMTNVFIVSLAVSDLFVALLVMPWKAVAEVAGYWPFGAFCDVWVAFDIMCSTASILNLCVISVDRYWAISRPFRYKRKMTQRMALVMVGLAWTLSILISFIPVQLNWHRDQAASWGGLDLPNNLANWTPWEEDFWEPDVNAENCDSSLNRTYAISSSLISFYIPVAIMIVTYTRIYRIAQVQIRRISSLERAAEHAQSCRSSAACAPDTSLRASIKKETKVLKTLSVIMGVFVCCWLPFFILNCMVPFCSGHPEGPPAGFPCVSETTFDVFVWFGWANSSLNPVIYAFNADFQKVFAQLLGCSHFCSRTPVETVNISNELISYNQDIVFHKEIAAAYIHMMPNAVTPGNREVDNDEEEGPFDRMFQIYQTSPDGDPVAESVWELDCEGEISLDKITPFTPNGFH

Structure (SMILES) | Ki (D5) [µM] | Ki (5HT2C) [µM] | inhibition at 10 µM (5HT4; 10 μM, CHO cells) [%] | Ki (5HT1A) [µM] | catalepsy (immobilized contact time) (rats [1]) | inhibition at 10 µM (5HT3) [%] | binding affinity to the D1 receptor (D1) | Ki (D1) [µM] | Ki (5HT4; receptor expressed in CHO cells) [µM] | time of peak cataleptic behavior post injection (rats [1]) [min] | suppression of conditioned avoidance responding (avoidances) (rats [2]) | antagonism of D2 autoreceptor-mediated decrease in tonic firing [3]
COc1cc2c(cc1O)CN1CCc3cc(OC)c(O)cc3[C@H]1C2 [d-govadine] | 0.0134 | 46.5 | 42 | 18.2 | No evidence of catalepsy | -8 | strong binding affinity | 0.00875 |  |  |  | 
COc1cc2c(cc1O)CN1CCc3cc(OC)c(O)cc3[C@@H]1C2 [l-govadine] |  | 45.2 |  | 15.2 | Catalepsy was observed | 5 | strong affinity | 0.00577 | 2.47 | 15 | Suppression of conditioned avoidance responding was observed; also recorded: suppresses CAR | antagonized
